Data from ChEMBL document CHEMBL4689842, “EUbOPEN Chemogenomics Library wave 1” (2021).

Columns and labels:
[1] = system: HEK-293T; test: Incucyte cell viability with HEK293T; assay type: toxicity, cell-based; conditions: human, 10 µM, compound concentration 10 uM
[2] = system: U2OS; test: Incucyte cell viability with U2OS; assay type: toxicity, cell-based; conditions: human, 10 µM, compound concentration 10 uM
[3] = 6 h, replicate number 1, timepoint 6 hours
[4] = 12 h, replicate number 1, timepoint 12 hours
[5] = 18 h, replicate number 1, timepoint 18 hours
[6] = 24 h, replicate number 1, timepoint 24 hours
[7] = 0 h, replicate number 1, timepoint 0 hours
[8] = 0 h, replicate number 2, timepoint 0 hours
[9] = 6 h, replicate number 2, timepoint 6 hours
[10] = 12 h, replicate number 2, timepoint 12 hours
[11] = 24 h, replicate number 2, timepoint 24 hours
[12] = 18 h, replicate number 2, timepoint 18 hours
Note: filed as whole numbers so only -1 and 0 and 1 occur.

Row | Compound | Growth Rate [1, 3] | Growth Rate [1, 4] | Growth Rate [1, 5] | Growth Rate [1, 6] | Growth Rate [2, 7] | Growth Rate [2, 3] | Growth Rate [2, 4] | Growth Rate [2, 5] | Growth Rate [2, 6] | Growth Rate [1, 7] | Growth Rate [1, 8] | Growth Rate [2, 9] | Growth Rate [1, 10] | Growth Rate [1, 9] | Growth Rate [2, 8] | Growth Rate [2, 10] | Growth Rate [2, 11] | Growth Rate [2, 12] | Growth Rate [1, 12]
1 | Cn1cc(C2=C(c3cn(C4CCN(Cc5ccccn5)CC4)c4ccccc34)C(=O)NC2=O)c2ccccc21 [ENZASTAURIN] | 0 | 0 | 0 | 0 | 0 | 0 | 0 | 0 | 0 |  |  |  |  |  |  |  |  |  | 
2 | O=C(NCCCC1CCCCC1)c1ccc(CNC(=O)c2cnn(-c3ccccc3)c2C(F)(F)F)cc1 [SR-321] | 0 | 0 | 0 | 0 | 0 | 1 | 1 | 1 | 1 | 0 | 1 | 0 |  |  |  |  |  |  | 
3 | CC[C@H](C)C(=O)O[C@H]1C[C@@H](C)C=C2C=C[C@H](C)[C@H](CC[C@@H]3C[C@@H](O)CC(=O)O3)[C@H]21 [LOVASTATIN] | 1 | 0 | 0 | 0 |  | 0 | 0 | 0 | 0 | 0 |  |  | 1 |  |  |  |  |  | 
4 | C[C@@]1(C(=O)Nc2ccc(F)nc2)CCCN1c1nc(Nc2cc(C3CC3)n[nH]2)c2cccn2n1 [BMS-754807] | 0 | 0 | 0 | 0 | 0 | 0 | 0 | 0 | 0 |  |  |  |  |  |  |  |  |  | 
5 | C=CC(=O)Nc1ccc2ncnc(Nc3ccc(OCc4cccc(F)c4)c(Cl)c3)c2c1.Cc1ccc(S(=O)(=O)O)cc1 |  |  | 0 | 0 |  |  | 1 | 0 | 0 | 0 | 1 | 0 | 0 | 0 | 1 |  |  |  | 
6 | CNc1nc(NCc2ccc(NS(C)(=O)=O)cc2Cl)cc(-c2ccccn2)n1 | 0 | 0 | 0 | 0 | 0 | 0 | 0 | 0 | 0 | 1 | 0 |  |  |  |  |  |  |  | 
7 | Cn1cc(-c2[nH]c3cc(NC(=O)[C@H](N)C4CCCCC4)cc4c3c2C=NNC4=O)cn1 | 0 | 0 | 0 | 0 | 0 | 0 | 0 | 0 | 0 |  |  | 1 |  |  |  | 1 |  |  | 
8 | CCOCCn1cc(C(=O)Nc2ccc(-n3nc(-c4cccnc4)cc3C(F)(F)F)cn2)ccc1=O [BI 1935] | 0 | 0 | 0 | 0 | 0 | 0 | 0 | 0 | 0 | 1 |  |  |  |  |  |  | 1 |  | 
9 | CN(C)C(=O)N[C@H]1CC[C@H](CCN2CCN(c3cccc(Cl)c3Cl)CC2)CC1.Cl [CARIPRAZINE HYDROCHLORIDE] | 0 | 0 | 0 | 0 | 1 | 0 | 1 | 1 | 1 |  | 1 |  |  |  |  |  |  |  | 
10 | Cc1nc(-c2ccc(-c3ccc(C(=O)N4CCc5cc6c(cc54)C4(CCN(C)CC4)CO6)cc3)c(C)c2)no1 [SB-224289] | 0 | 0 | 0 | 0 |  |  |  | 1 | 1 |  | 0 | 1 |  |  | 0 | 1 | 0 |  | 
11 | Cc1nc(-c2cn3c(n2)-c2ccc(-c4cnn(C(C)(C)C(N)=O)c4)cc2OCC3)n(C(C)C)n1 [TASELISIB] | 0 | 0 | 0 | 0 | 0 | 0 | 1 | 0 | 0 |  |  |  |  |  |  |  |  | 1 | 
12 | COc1cccc([C@@H](C)NCCCc2ccccc2Cl)c1.Cl [TECALCET HYDROCHLORIDE] | 0 | 0 | 0 | 0 | 0 |  | 1 | 1 | 1 |  | 0 | 0 |  |  |  |  | 0 |  | 
13 | Cc1csc2c(N[C@@H](C)CN3CCN(S(=O)(=O)c4ccc(Cl)c(Cl)c4)CC3)ncnc12 | 0 | 0 | 0 | 0 | 0 |  | 1 | 0 | 0 | 0 |  | 1 |  |  |  | 0 |  |  | 
14 | NC(=O)Nc1cc(-c2cccc(F)c2)sc1C(=O)N[C@H]1CCCNC1 [AZD-7762] | 0 | 0 | 0 | 0 | 0 | 0 | 0 | 0 | 0 | 0 | 1 |  |  |  |  |  |  |  | 
15 | Cn1c(-c2csc(C3CCN(CC4=NC5N=CC=CC5N4)CC3)n2)nc2ccccc21 (stereo not drawn) [BAY-070] | 0 | 0 | 0 | 0 | 0 | 0 | 1 | 0 | 1 |  |  |  |  |  |  |  | 0 | 1 | 
16 | COc1cc(-n2cnc3cc(-c4ccc(Cl)cc4)sc3c2=O)ccc1OCCN1CCCC1 | 0 | 0 | 0 | 0 | 0 | 0 | 0 | 0 | 0 |  | 1 |  |  |  |  |  |  |  | 
17 | Nc1c(C(=O)NCc2ccc(C(=O)NCCCC3CCCCC3)cc2)cnn1-c1ccccc1 [SR-318] |  |  | 1 | 0 |  | 1 | 1 | 1 | 1 | 0 |  |  | 0 | 0 | 0 |  |  |  | 0
18 | Cc1[nH]c(/C=C2\C(=O)Nc3ccc(S(=O)(=O)N(C)c4cccc(Cl)c4)cc32)c(C)c1C(=O)N1CCN(C)CC1 |  |  | 0 | 0 |  |  | 0 | 0 | 0 | 0 |  |  |  |  | 0 | 1 |  |  | 1
19 | CN1CCN(CCOc2cc(OC3CCOCC3)c3c(Nc4c(Cl)ccc5c4OCO5)ncnc3c2)CC1 [SARACATINIB] | 0 | 0 | 0 | 0 |  | 0 | 0 | 0 | 0 |  |  |  |  |  |  | 1 | 1 | 1 | 
20 | Cc1c(-c2ccc(O)cc2)n(Cc2ccc(OCCN3CCCCCC3)cc2)c2ccc(O)cc12 [BAZEDOXIFENE] | 0 | 0 | 0 | 0 |  |  | 1 | 0 | 0 |  | 0 |  |  |  | 0 |  |  | 1 | 
21 | O=C(NCCN1CCOCC1)c1ccc2c(c1)C(=O)c1ccc(Nc3ccc(F)c(NC(=O)c4ccccc4)c3)cc1CC2 [FS-694] | 0 | 0 | 0 | 0 |  |  | 1 | 0 | 0 |  | 0 |  |  |  | 0 |  | 1 |  | 
22 | CN1CCC[C@@H]1CCO[C@](C)(c1ccccc1)c1ccc(Cl)cc1.O=C(O)/C=C/C(=O)O [CLEMASTINE FUMARATE] | 0 | 0 | 0 | 0 |  |  | 0 | 0 | 0 |  | 1 | 0 |  |  |  |  |  |  | 
23 | C=CC(=O)Nc1cc2c(Nc3ccc(F)c(Cl)c3)ncnc2cc1OCCCN1CCOCC1.Cl.Cl [CANERTINIB DIHYDROCHLORIDE] | 0 | 0 | 0 | 0 |  | 0 | 0 | 0 | 0 |  |  |  |  |  |  |  |  |  | 
24 | COc1ccc(Oc2cc(NCCC(F)(F)F)c3ncc(-c4ccc(C(=O)NC5CC5)c(C)c4)n3n2)c(F)c1F [BAY-1217389] | 0 | 0 | 0 | 0 | 0 | 0 | 0 | 0 | 0 | 0 |  |  |  |  |  | 1 |  | 1 | 
25 | COc1cc2nccc(Oc3ccc(NC(=O)Nc4cc(C)on4)c(Cl)c3)c2cc1OC.O | 0 | 0 | 0 | 0 | 1 | 0 | 0 | 0 | 0 |  | 0 |  |  |  | 0 |  |  |  | 
26 | C[C@@H](NCCCc1cccc(C(F)(F)F)c1)c1cccc2ccccc12.Cl [CINACALCET HYDROCHLORIDE] | 0 | 0 | 0 | 0 |  |  | 1 | 0 | 0 |  | 0 | 0 |  |  |  | 0 |  |  | 
27 | CC(C)C(=O)Nc1n[nH]c2cc(-c3cccc(NS(=O)(=O)C4CC4)c3)ccc12 | 0 | 0 | 0 | 0 | 0 | 0 | 0 | 0 | 0 | 0 |  |  |  |  |  |  |  |  | 
28 | Cc1sc2c(c1C)C(c1ccc(Cl)cc1)=N[C@@H](CC(=O)OC(C)(C)C)c1nnc(C)n1-2 |  |  | 1 | 0 | 0 | 0 | 1 | 0 | 0 | 0 | 1 | 1 | 0 | 0 |  |  | 1 | 1 | 0
29 | Cc1nc(Nc2n[nH]c3c2CN(C(=O)N[C@H](CN(C)C)c2ccccc2)C3(C)C)c2sccc2n1 [PF-03758309] | 0 | 0 | 0 | 0 | 1 | 0 | 0 | 0 | 0 |  |  |  |  |  |  |  |  |  | 
30 | COc1ncc(-c2ccc3nccc(-c4ccnnc4)c3c2)cc1NS(=O)(=O)c1ccc(F)cc1F [OMIPALISIB] | 0 | 0 | 0 | 0 | 1 | 1 | 1 | 0 | 0 |  |  |  |  |  |  |  |  |  | 
